# System: hydroponic rice seedlings
# Test: Addition of 4,5-dimethylthiazole to hydroponic rice: growth, agronomic traits and nitrogen accumulation
# Format: in vivo, indica (Heliangyou 332) and japonica (Nipponbare)
# Conditions: for Dry Matter Mass of Rice, Root System / Dry Matter Mass of Rice, Shoot Part / Dry Matter Mass of Rice, Total / Leaf Area / Leaf Length / Leaf Width / Plant Height / Total Root Count: 25 days of cultivation
# Method: Five addition concentrations of 4,5-dimethylthiazole (CAS No. 3581-91-7, see FIG. 1 for structural formula) were set, being 0, 5, 10, 20 and 50 mg/L, respectively, and a solvent was a rice nutrient solution. Two rice varieties were indica (Heliangyou 332) and japonica (Nipponbare), respectively. The rice was subjected to normal seed soaking, sowing and cultivation. When grown to one leaf and one tiller, rice seedlings were cultivated with mixed solution. Samples were collected after 25 days of cultivation. 30 plants were sampled from each treatment, where 15 plants were divided into two parts of stems and leaves, and root system, which were dried and weighed, and the other 15 plants were measured for agronomic traits.
smiles,measurement,setting,value
"Cc1ncsc1C [4,5-dimethylthiazole]","Dry Matter Mass of Rice, Root System",5 mg/L,3.1 mg/plant
same,"Dry Matter Mass of Rice, Shoot Part",5 mg/L,17.0 mg/plant
same,"Dry Matter Mass of Rice, Total",5 mg/L,20.1 mg/plant
same,Leaf Area,5 mg/L,3.39 cm^2
same,Leaf Length,5 mg/L,10.73 cm
same,Leaf Width,5 mg/L,0.38 cm
same,Plant Height,5 mg/L,16.73 cm
same,Total Root Count,5 mg/L,8.0 count/plant
same,"Dry Matter Mass of Rice, Root System",10 mg/L,4.0 mg/plant
same,"Dry Matter Mass of Rice, Shoot Part",10 mg/L,24.3 mg/plant
same,"Dry Matter Mass of Rice, Total",10 mg/L,28.3 mg/plant
same,Leaf Area,10 mg/L,3.03 cm^2
same,Leaf Length,10 mg/L,10.88 cm
same,Leaf Width,10 mg/L,0.34 cm
same,Plant Height,10 mg/L,16.97 cm
same,Total Root Count,10 mg/L,8.0 count/plant
same,"Dry Matter Mass of Rice, Root System",20 mg/L,3.8 mg/plant
same,"Dry Matter Mass of Rice, Shoot Part",20 mg/L,22.0 mg/plant
same,"Dry Matter Mass of Rice, Total",20 mg/L,25.8 mg/plant
same,Leaf Area,20 mg/L,3.16 cm^2
same,Leaf Length,20 mg/L,11.08 cm
same,Leaf Width,20 mg/L,0.34 cm
same,Plant Height,20 mg/L,16.13 cm
same,Total Root Count,20 mg/L,8.7 count/plant
same,"Dry Matter Mass of Rice, Root System",50 mg/L,3.0 mg/plant
same,"Dry Matter Mass of Rice, Shoot Part",50 mg/L,19.7 mg/plant
same,"Dry Matter Mass of Rice, Total",50 mg/L,22.7 mg/plant
same,Leaf Area,50 mg/L,3.01 cm^2
same,Leaf Length,50 mg/L,9.23 cm
same,Leaf Width,50 mg/L,0.39 cm
same,Plant Height,50 mg/L,14.15 cm
same,Total Root Count,50 mg/L,9.3 count/plant
same,increase of leaf area,"5-50 mg/L, average",59.6%
same,increase of leaf length,"5-50 mg/L, average",33.9%
same,increase of leaf width,"5-50 mg/L, average",19.6%
same,increase of rice plant height,"5-50 mg/L, average",31.5%
same,increase of total root count,"5-50 mg/L, average",47.8%
